Data on ten molecules can be found in publication PMC12163635, “Synthetic Retinoids for the Modulation of Genomic and Nongenomic Processes in Neurodegenerative Diseases” (ACS Omega, 2025).

pEC50: −log10 of the molar value.

Test [1] has as its system Sil-15 cells containing a RARE driving a lacZ reporter. In words: X-Gal-based RA reporter assay (genomic response). On the set-up: genomic response Emax (±95% CI): unit not given here. To be noted: for genomic response Emax (±95% CI) / pEC50: Sil-15 reporter cells; for genomic response Emax (±95% CI): absorbance at 650 nm; for genomic EC50 compared with ATRA / genomic E max compared with ATRA: nonoverlapping 95% CI; for pEC50: read-out: genomic response EC50 (±95% CI), overnight, 10^–6 to 10^–14 M. It is filed as cell-based. The source says:
Following chemical design and synthesis, the synthetic retinoid library was screened for genomic and nongenomic biological activities and compared to the response of the endogenous retinoid, ATRA. In these assays, the EC50 value represented the concentration of retinoid that gave half-maximal response (potency), while the E max value represented the maximum response achievable from the retinoid (efficacy).
The transcriptional genomic activity of the retinoids was quantified using Sil-15 cells containing a RARE driving a lacZ reporter. […] Twenty-two of the synthetic retinoids were effective in inducing genomic activity. […] In addition, the retinoids varied in their efficacies.
The Sil-15 cell line was used in the X-gal RA reporter assay described below. The cells were grown in Dulbecco’s modified Eagle’s medium (DMEM) containing 10% fetal bovine serum (FCS) (Invitrogen/Gibco), 0.6% penicillin-streptomycin (Gibco) and 0.8 mg/mL G418 sulfate (Sigma) for selection. They were maintained in a humidified atmosphere containing 5% CO2 at 37 °C. The medium was changed three times a week and the cells were passaged at 70% confluence using 0.05% trypsin-EDTA.
Sil-15 cells are F9 teratocarcinoma cells stably transfected with a plasmid containing the LacZ gene under the control of a DR5-type RA response element (RARE). The reporter cell line was used to detect the transcriptional genomic activity of ATRA and other retinoids by colorimetrically quantifying the insoluble blue product generated by β-galactosidase from X-gal during the assay. The assay was performed by plating 100,000 cells per well in the 0.1% gelatin-coated 96-well plates and leaving them to attach overnight. The ATRA/retinoids dilutions ranging from 10^–6 to 10^–14 M were incubated on the reporter cells overnight at 37 °C, in 5% CO2. A standard curve of ATRA was included in each experiment to ensure the reproducibility of the results between assays performed on different days. All the assays for ATRA as well as the retinoids were quantified in triplicate. Serial dilutions of retinoids were prepared from a stock solution under red/orange light. The stock solutions prepared in DMSO for each retinoid varied depending on the solubility of each compound. Each stock was stored at −20 °C and protected from light. The next day, Sil-15 cells were washed with PBS, fixed with 1% glutaraldehyde and 1 mM MgCl2 solution for 15 min, and developed in X-gal developing solution (0.2% X-Gal, 1 mM MgCl2, 3.3 mM potassium ferricyanide and 3.3 mM potassium ferrocyanide in PBS). The plates were read on an E max microplate reader (Molecular Devices) at 650 nm.
(§1) All data are presented as mean ± SEM of three independent experiments with biological triplicates. Statistical analyses were performed in Microsoft Office Excel 2019 or GraphPad Prism 7.0c version (Prism, GraphPad Software, San Diego, CA). Neurite outgrowth data were analyzed by one-way ANOVA with Newman-Keuls multiple comparison test as appropriate; P value <0.05 was considered statistically significant. *P < 0.05, **P < 0.01. Data for X-Gal and ERK1/2 phosphorylation were analyzed using sigmoidal dose–response analysis of log (agonist) versus response curve (stimulation).
For orientation: In a reporter assay the amount or activity of a reporter protein is the signal.

The subject of test [2] is ERK1/2 phosphorylation in SH-SY5Y cells. In words: ERK1/2 phosphorylation (nongenomic response), AlphaScreen SureFire. The class given is cell-based, human. Also on record: nongenomic response Emax (±95% CI): unit not given here. The conditions noted are these: for induction of ERK1/2 phosphorylation (nongenomic activity) / nongenomic response EC50 (±95% CI) / nongenomic response Emax (±95% CI) / pEC50: SH-SY5Y cells, 1 h; for pEC50: Homo sapiens, read-out: nongenomic response EC50 (±95% CI); for nongenomic E max compared with ATRA: nonoverlapping 95% CI. How it is done:
After screening the retinoids for genomic responses, they were tested for their nongenomic ability to rapidly phosphorylate ERK1/2 in the SH-SY5Y cell line. ATRA is known as a potent activator of ERK1/2 − and was used as the standard for comparison. […] The efficacies of the remaining seven retinoids were similar to ATRA.
SH-SY5Y cell line as used in ERK phosphorylation and neurite outgrowth assays described below. The cells were grown in DMEM containing 10% FCS at 37 °C with 5% CO2. The medium was changed three times a week and the cells were passaged at 70% confluence using 0.05% trypsin-EDTA.
To quantify ERK1/2 phosphorylation, SH-SY5Y cells (100,000 cells/well) were plated onto 96-well plates and serum-starved for 24 h in DMEM. Cells were assayed in serum-free DMEM and stimulated for 60 min at 37 °C in a humidified atmosphere. Retinoids were tested at concentrations ranging from 10 to 4 to 10–11 M and at a final concentration of 0.1% DMSO. At the end of the assay, the medium was removed, and cells were lysed with lysis buffer supplied in the AlphaScreen SureFire ERK1/2 kit (PerkinElmer). The assay was performed in 384-well white Proxiplates according to the manufacturer’s instructions and using the beads supplied in the protein A general IgG detection kit (PerkinElmer). Briefly, 4 μL samples were incubated with 7 μL of the freshly prepared mixture containing donor and acceptor beads. Plates were incubated at room temperature and read with the Envision system (PerkinElmer Life Sciences) using AlphaScreen settings.
as §1
Background: In Alpha technology, singlet oxygen from a donor bead excites a nearby acceptor bead.

As a reminder, the pEC50 is −log10 of the EC50, conventionally taken in molar units.

Consider `COc1cc2c(cc1C#Cc1ccc(C(=O)O)cn1)C(C)(C)CCC2(C)C` [Compound 27, 6-[2-(3-Methoxy-5,5,8,8-tetramethyl-5,6,7,8-tetrahydronaphthalen-2-yl)ethynyl]pyridine-3-carboxylic Acid], for which, in test [1], the “genomic response Emax (±95% CI)” value is recorded as 176 (±8.55), the “genomic EC50 compared with ATRA” value is on record as “significantly higher EC50 values than ATRA” and the pEC50 was 8.50. Further, in test [2], the “induction of ERK1/2 phosphorylation (nongenomic activity)” value (shortened to “induction of ERK1/2 phosphorylation”) is listed as “lacked nongenomic activity”, the “nongenomic response EC50 (±95% CI)” value is “no response” and the “nongenomic response Emax (±95% CI)” value is listed as “no response”.
For the molecule `Cc1cc2c(cc1C#Cc1ncc(C(=O)O)cn1)C(C)(C)CCC2(C)C` [Compound 28, 2-[2-(3,5,5,8,8-Pentamethyl-5,6,7,8-tetrahydronaphthalen-2-yl)ethynyl]pyrimidine-5-carboxylic Acid], in test [1], the “genomic response Emax (±95% CI)” value is 192 (±12.7) and the pEC50 is 9.08. Also, in test [2], the pEC50 is 8.27 and the “nongenomic response Emax (±95% CI)” value is listed as 44.7 (±3.15).
Regarding `COc1cc2c(cc1C#Cc1ncc(C(=O)O)cn1)C(C)(C)CCC2(C)C` [Compound 29, 2-[2-(3-Methoxy-5,5,8,8-tetramethyl-5,6,7,8-tetrahydronaphthalen-2-yl)ethynyl]pyrimidine-5-carboxylic Acid], in test [1], the “genomic response Emax (±95% CI)” value is recorded as 266 (±110), the “genomic EC50 compared with ATRA” value was “significantly higher EC50 values than ATRA” and the pEC50 was 6.22. Also, in test [2], the pEC50 is 7.06, the “nongenomic response Emax (±95% CI)” value is 37.5 (±2.12) and the “nongenomic E max compared with ATRA” value is “E max values significantly lower than ATRA”.
With `CC1(C)CCC(C)(C)c2nc(C#Cc3ccc(C(=O)O)cc3)cnc21` [Compound 30, 4-[2-(5,5,8,8-Tetramethyl-5,6,7,8-tetrahydroquinoxalin-2-yl)ethynyl]benzoic Acid], in test [1], the “genomic EC50 compared with ATRA” value is listed as “significantly lower EC50 than ATRA”. Moreover, in test [2], the pEC50 was 8.07, the “induction of ERK1/2 phosphorylation” value is recorded as “showed activity toward the nongenomic pathway”, the “nongenomic response Emax (±95% CI)” value is reported as 91.6 (±3.21) and the “nongenomic E max compared with ATRA” value is “E max values significantly higher than ATRA”.
Regarding `CC1(C)CCC(C)(C)c2nc(C#Cc3ccc(C(=O)O)cc3F)cnc21` [Compound 31, 3-Fluoro-4-[2-(5,5,8,8-tetramethyl-5,6,7,8-tetrahydroquinoxalin-2-yl)ethynyl]benzoic Acid], in test [1], the “genomic EC50 compared with ATRA” value was “significantly lower EC50 than ATRA” and the negative-log EC50 (pEC50) is 9.42. In addition, in test [2], the pEC50 is 7.23, the “nongenomic response Emax (±95% CI)” value is recorded as 91.6 (±3.84) and the “nongenomic E max compared with ATRA” value was “E max values significantly higher than ATRA”.
With `Cc1sc(-c2ccc(C(=O)O)cc2)nc1-c1cnc2c(n1)C(C)(C)CCC2(C)C` [Compound 40, 4-[5-Methyl-4-(5,5,8,8-tetramethyl-5,6,7,8-tetrahydroquinoxalin-2-yl)-1,3-thiazol-2-yl]benzoic Acid], in test [1], the “genomic response Emax (±95% CI)” value is on record as 181 (±7.45), the “genomic E max compared with ATRA” value is reported as “significantly higher E max than ATRA”, the “genomic EC50 compared with ATRA” value is reported as “significantly lower EC50 than ATRA” and the pEC50 was 11.63. Further, in test [2], the pEC50 is 10.27, the “nongenomic response Emax (±95% CI)” value is listed as 40.7 (±1.02) and the “nongenomic E max compared with ATRA” value is given as “E max values significantly lower than ATRA”.
Turning to `Cc1sc(-c2ccc(C(=O)O)cn2)nc1-c1cnc2c(n1)C(C)(C)CCC2(C)C` [Compound 41, 6-[5-Methyl-4-(5,5,8,8-tetramethyl-5,6,7,8-tetrahydroquinoxalin-2-yl)-1,3-thiazol-2-yl]pyridine-3-carboxylic Acid], in test [1], the “genomic response Emax (±95% CI)” value was 144 (±16.5), the “genomic E max compared with ATRA” value is given as “significantly lower E max than ATRA”, the “genomic EC50 compared with ATRA” value is “significantly higher EC50 values than ATRA” and the pEC50 was 7.77. In test [2], the pEC50 is 7.81, the “nongenomic response Emax (±95% CI)” value is recorded as 55.26 (±0.00) and the “nongenomic E max compared with ATRA” value is listed as “E max values significantly higher than ATRA”.
`Cc1sc(-c2ccc(C(=O)O)c(F)c2)nc1-c1cnc2c(n1)C(C)(C)CCC2(C)C` [Compound 42, 2-Fluoro-4-[5-methyl-4-(5,5,8,8-tetramethyl-5,6,7,8-tetrahydroquinoxalin-2-yl)-1,3-thiazol-2-yl]benzoic Acid]: in test [1], the “genomic E max compared with ATRA” value is recorded as “significantly higher E max than ATRA”, the “genomic EC50 compared with ATRA” value is “significantly lower EC50 than ATRA” and the pEC50 is 10.81. For the same molecule, in test [2], the pEC50 was 7.90 and the “nongenomic response Emax (±95% CI)” value is 54.1 (±4.07).
For the molecule `Cc1sc(-c2ccc(C(=O)O)cc2F)nc1-c1cnc2c(n1)C(C)(C)CCC2(C)C` [Compound 43, 3-Fluoro-4-[5-methyl-4-(5,5,8,8-tetramethyl-5,6,7,8-tetrahydroquinoxalin-2-yl)-1,3-thiazol-2-yl]benzoic Acid], in test [1], the “genomic response Emax (±95% CI)” value is given as 195 (±35.2), the “genomic E max compared with ATRA” value is “significantly higher E max than ATRA” and the pEC50 was 8.79. In addition, in test [2], the “induction of ERK1/2 phosphorylation” value is “lacked nongenomic activity”, the “nongenomic response EC50 (±95% CI)” value was “no response” and the “nongenomic response Emax (±95% CI)” value is recorded as “no response”.
In the case of `Cc1sc(-c2ccc(C(=O)O)cc2)nc1-c1ccc2c(c1)C(C)(C)CCC2(C)C` [GZ25, reference compound], in test [1], the “genomic response Emax (±95% CI)” value is recorded as 209 (±15.5), the “genomic E max compared with ATRA” value is “significantly higher E max than ATRA”, the “genomic EC50 compared with ATRA” value is reported as “significantly lower EC50 than ATRA” and the pEC50 was 9.74. Further, in test [2], the pEC50 is 8.45, the “nongenomic response Emax (±95% CI)” value is reported as 76.6 (±2.61) and the “nongenomic E max compared with ATRA” value is “E max values significantly higher than ATRA”.
